Peptide text beside a SMILES is read from it.
Tests used:
Plasma stability = assay type: in vitro ADME, CD-1 mouse
rat hepatocytes = assay: Metabolite identification in hepatocytes; assay type: in vitro ADME; conditions: cryopreserved rat hepatocytes, FC-12738 10 μM, 37 °C, 240 min, LC-UV-MS
CYP2C19 = CYP2C19 (Homo sapiens, UniProt P33261); assay: CYP450 inhibition assay; assay type: in vitro ADME
[1] = Single-dose pharmacokinetics in beagle dogs; assay type: in vivo, beagle dog; conditions: for AUC0-last: n=3, mean
[2] = Single rising dose pharmacokinetics in beagle dogs; assay type: in vivo, beagle dog; conditions: for AUC(0-inf) / AUC(0-t) / Cmax / Tmax / half-life: male, beagle, dog, plasma, sc
OAT1 = OAT1 (Homo sapiens, UniProt Q4U2R8); assay: Transporter inhibition in HEK293 cells; assay type: in vitro ADME
Sequence of OAT1 (Q4U2R8 whole entry): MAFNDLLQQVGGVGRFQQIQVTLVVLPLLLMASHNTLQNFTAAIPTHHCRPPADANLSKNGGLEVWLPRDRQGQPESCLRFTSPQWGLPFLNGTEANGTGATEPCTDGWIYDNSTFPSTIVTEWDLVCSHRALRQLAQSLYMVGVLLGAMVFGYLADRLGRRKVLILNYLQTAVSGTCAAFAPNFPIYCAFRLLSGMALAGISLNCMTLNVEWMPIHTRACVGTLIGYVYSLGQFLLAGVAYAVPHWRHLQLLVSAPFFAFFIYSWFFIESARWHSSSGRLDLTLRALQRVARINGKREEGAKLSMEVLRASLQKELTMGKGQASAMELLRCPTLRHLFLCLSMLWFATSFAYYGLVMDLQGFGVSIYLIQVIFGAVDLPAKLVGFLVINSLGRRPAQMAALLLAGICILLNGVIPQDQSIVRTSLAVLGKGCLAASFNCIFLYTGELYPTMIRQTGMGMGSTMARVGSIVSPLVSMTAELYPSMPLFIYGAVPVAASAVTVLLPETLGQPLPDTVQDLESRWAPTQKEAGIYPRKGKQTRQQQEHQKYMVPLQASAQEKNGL

CYP2D6 = CYP2D6 (Homo sapiens, UniProt P10635); assay: CYP time-dependent inhibition assay; assay type: in vitro ADME
Sequence of CYP2D6 (P10635 whole entry): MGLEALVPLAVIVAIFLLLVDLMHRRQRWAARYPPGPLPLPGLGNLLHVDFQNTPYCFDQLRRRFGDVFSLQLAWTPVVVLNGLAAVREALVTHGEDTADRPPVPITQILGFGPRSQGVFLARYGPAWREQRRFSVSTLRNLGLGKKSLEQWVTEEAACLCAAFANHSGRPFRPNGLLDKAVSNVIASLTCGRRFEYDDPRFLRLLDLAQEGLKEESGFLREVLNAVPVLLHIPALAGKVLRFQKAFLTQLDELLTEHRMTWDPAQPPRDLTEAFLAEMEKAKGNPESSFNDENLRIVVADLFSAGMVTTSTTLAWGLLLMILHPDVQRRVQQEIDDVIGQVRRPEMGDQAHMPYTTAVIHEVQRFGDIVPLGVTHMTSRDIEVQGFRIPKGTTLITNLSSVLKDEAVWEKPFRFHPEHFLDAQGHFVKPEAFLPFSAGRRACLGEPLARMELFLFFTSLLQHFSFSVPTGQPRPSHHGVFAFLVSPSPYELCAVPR

MATE2-K = MATE2-K (Homo sapiens, UniProt Q86VL8); assay: Transporter inhibition in HEK293 cells; assay type: in vitro ADME
Sequence of MATE2-K (Q86VL8 1-566 isoform Q86VL8-3): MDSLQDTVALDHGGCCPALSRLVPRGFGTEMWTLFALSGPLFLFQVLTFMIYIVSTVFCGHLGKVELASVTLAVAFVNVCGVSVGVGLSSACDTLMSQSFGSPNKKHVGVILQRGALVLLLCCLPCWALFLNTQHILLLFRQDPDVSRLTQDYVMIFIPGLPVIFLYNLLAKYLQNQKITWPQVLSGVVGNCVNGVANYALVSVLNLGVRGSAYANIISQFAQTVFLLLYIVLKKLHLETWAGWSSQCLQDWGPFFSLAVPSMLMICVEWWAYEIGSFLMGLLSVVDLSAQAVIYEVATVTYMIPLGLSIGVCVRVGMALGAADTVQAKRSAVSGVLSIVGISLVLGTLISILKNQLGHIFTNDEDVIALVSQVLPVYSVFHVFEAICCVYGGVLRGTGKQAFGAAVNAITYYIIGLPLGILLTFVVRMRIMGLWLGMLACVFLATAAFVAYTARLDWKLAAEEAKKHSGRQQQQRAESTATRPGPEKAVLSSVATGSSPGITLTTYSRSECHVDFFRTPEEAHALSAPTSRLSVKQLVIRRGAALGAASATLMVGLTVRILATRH

CYP1A2 = molecular target: T1, CYP1A2 (Homo sapiens, UniProt P05177); assay: biochemical; assay type: in vitro ADME
T1 sequence (P05177 1-516): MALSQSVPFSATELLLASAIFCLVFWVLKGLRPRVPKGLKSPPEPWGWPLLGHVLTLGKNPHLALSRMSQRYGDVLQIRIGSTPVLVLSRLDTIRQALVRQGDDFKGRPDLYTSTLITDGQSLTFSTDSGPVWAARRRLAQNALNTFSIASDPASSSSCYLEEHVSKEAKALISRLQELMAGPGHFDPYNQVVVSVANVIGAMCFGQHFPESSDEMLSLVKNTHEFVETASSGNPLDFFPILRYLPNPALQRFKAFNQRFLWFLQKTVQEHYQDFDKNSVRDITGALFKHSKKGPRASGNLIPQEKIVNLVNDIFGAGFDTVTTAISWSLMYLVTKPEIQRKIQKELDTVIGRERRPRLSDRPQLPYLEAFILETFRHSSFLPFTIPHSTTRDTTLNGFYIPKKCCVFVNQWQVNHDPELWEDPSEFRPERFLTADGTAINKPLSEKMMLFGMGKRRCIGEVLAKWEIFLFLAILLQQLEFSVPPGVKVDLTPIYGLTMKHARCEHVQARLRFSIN

[3] = Single-dose pharmacokinetics in SD rats; assay type: in vivo, SD rat
[4] = male, beagle, dog, plasma, iv, 1 mg/kg
[5] = male, beagle, dog, plasma, sc, 5 mg/kg
[6] = cutoff IC50 shift >= 1.5-fold, 30 min pre-incubation ± NADPH
[7] = male, SD, rat, plasma, iv, 2 mg/kg
[8] = male, SD, rat, plasma, sc, 10 mg/kg

Sequence of CYP2C19 (P33261 whole entry): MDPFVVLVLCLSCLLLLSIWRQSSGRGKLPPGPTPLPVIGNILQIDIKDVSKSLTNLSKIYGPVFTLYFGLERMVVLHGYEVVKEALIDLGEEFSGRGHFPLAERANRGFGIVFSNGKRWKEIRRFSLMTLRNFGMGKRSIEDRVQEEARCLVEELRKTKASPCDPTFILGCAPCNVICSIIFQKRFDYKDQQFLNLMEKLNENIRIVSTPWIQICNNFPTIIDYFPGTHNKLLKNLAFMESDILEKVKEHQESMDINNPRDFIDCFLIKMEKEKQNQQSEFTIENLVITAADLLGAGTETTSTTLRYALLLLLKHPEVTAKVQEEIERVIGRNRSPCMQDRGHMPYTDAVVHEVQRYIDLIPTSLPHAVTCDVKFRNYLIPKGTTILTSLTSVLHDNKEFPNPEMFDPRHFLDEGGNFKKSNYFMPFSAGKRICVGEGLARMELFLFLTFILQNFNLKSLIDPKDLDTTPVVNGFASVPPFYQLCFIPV

With `CC(C)[C@@H](NC(=O)[C@H](N)Cc1ccc(O)cc1)C(=O)N[C@H](CC(=O)O)C(=O)N[C@H](CCCCN)C(=O)N[C@H](CCCNC(=N)N)C(=O)O` [FC-12738, (D-Tyr)-(D-Val)-(D-Asp)-(D-Lys)-(D-Arg)] (HELM PEPTIDE1{[dY].[dV].[dD].[dK].[dR]}$$$$V2.0) the remaining at 10 min, 2 μM (Plasma stability; CD-1, mouse, plasma) was 104%, the remaining at 0.5 h, 2 μM (Plasma stability; CD-1, mouse, plasma) was 100% and the remaining at 1 h, 2 μM (Plasma stability; CD-1, mouse, plasma) was 111%. The remaining at 2 h, 2 μM (Plasma stability; CD-1, mouse, plasma) was 100%, the half-life (Plasma stability; CD-1 mouse plasma, 2.00 μM, 37.0 °C, up to 120 min) was over 372.7 min and the “Relative Abundance (UV%)” value (rat hepatocytes) was 87.56%. For the same molecule, the IC50 (CYP2C19) was over 100 µM, the “Tolerability / adverse effects in-life” value ([1]; male beagle dogs, IV 1 mg/kg or SC 5 mg/kg single) was “No adverse effect was observed” and the AUC0-last ([1]; male beagle dogs, IV 1 mg/kg single) was 2850 ± 439 ng·h/mL. The AUC0-last ([1]; male beagle dogs, SC 5 mg/kg single) was 16100 ± 2510 ng·h/mL, the bioavailability ([1]; male beagle dogs, SC 5 mg/kg, calculated with mean AUC0-last and nominal dose) was 112% and the AUC(0-inf) [1, 4] was 2900 ng·h/mL. It also gave a C0 [1, 4] of 4820 ng/mL, a Vd [1, 4] of 0.302 L/kg and a clearance [1, 4] of 5.85 mL/min/kg. For the same molecule, the AUC(0-inf) [1, 5] was 16200 ng·h/mL, the Cmax [1, 5] was 7300 ng/mL and the Tmax [1, 5] was 50 min. For the same molecule, the half-life [1, 5] was 53 min, the “Dose dependence of systemic exposure (AUC0-last and Cmax)” value ([2]; male beagle dogs, SC 1 to 25 mg/kg) was “increased with dose proportionally” and the AUC(0-inf) ([2]; 1 mg/kg) was 2770 ng·h/mL. The AUC(0-t) ([2]; 1 mg/kg) was 2760 ng·h/mL, the Cmax ([2]; 1 mg/kg) was 925 ng/mL and the Tmax ([2]; 1 mg/kg) was 60 min. The half-life ([2]; 1 mg/kg) was 57.4 min, the AUC(0-inf) ([2]; 5 mg/kg) was 16800 ng·h/mL and the AUC(0-t) ([2]; 5 mg/kg) was 16700 ng·h/mL. It also gave a Cmax ([2]; 5 mg/kg) of 7090 ng/mL, a Tmax ([2]; 5 mg/kg) of 60 min and a half-life ([2]; 5 mg/kg) of 54.4 min. It also gave an AUC(0-inf) ([2]; 25 mg/kg) of 72800 ng·h/mL, an AUC(0-t) ([2]; 25 mg/kg) of 72800 ng·h/mL and a Cmax ([2]; 25 mg/kg) of 33300 ng/mL. For the same molecule, the Tmax ([2]; 25 mg/kg) was 40 min, the half-life ([2]; 25 mg/kg) was 121 min and the IC50 (OAT1) was over 100 µM. The IC50 (CYP2D6) was over 100 µM, the “Time-dependent inhibition of CYP2D6” value (CYP2D6; [6]) was “no time-dependent inhibition” and the IC50 (MATE2-K) was over 100 µM. The IC50 (CYP1A2) was over 100 µM, the “Time-dependent inhibition of CYP1A2” value (CYP1A2; [6]) was “no time-dependent inhibition” and the “Tolerability / adverse effects in-life” value ([3]; male SD rats, IV 2 mg/kg or SC 10 mg/kg single) was “No adverse effect was observed”. It also gave an AUC(0-inf) [3, 7] of 2830 ng·h/mL, an AUC(0-t) [3, 7] of 2800 ng·h/mL and a C0 [3, 7] of 7830 ng/mL. The Vd [3, 7] was 0.309 L/kg, the clearance [3, 7] was 11.8 mL/min/kg and the half-life [3, 7] was 19.1 min. It also gave an AUC(0-inf) [3, 8] of 13000 ng·h/mL, an AUC(0-t) [3, 8] of 13000 ng·h/mL and a Cmax [3, 8] of 8430 ng/mL. For the same molecule, the Tmax [3, 8] was 25 min, the bioavailability [3, 8] was 91.9% and the half-life [3, 8] was 40.8 min.

— article doi:10.1101/2023.04.18.537371v1 (bioRxiv, 2023)
